What was measured:
Assay in all cases: radiometric filter-binding kinase assay, Kinase HotSpot
Conditions in all cases: compound 0.5 µM; ATP 10 µM
MARK2 (human) = MARK2 (human) (UniProt Q7KZI7)
TTK (human) = TTK (human) (UniProt P33981)
CAMK1G (human) = CAMK1G (human) (UniProt Q96NX5)
MAP3K3 (human) = MAP3K3 (human) (UniProt Q99759)
MAP4K4 (human) = MAP4K4 (human) (UniProt O95819)
TAOK1 (human) = TAOK1 (human) (UniProt Q7L7X3)
AURKB (human) = AURKB (human) (UniProt Q96GD4)
MAPK12 (human) = MAPK12 (human) (UniProt P53778)
DYRK1B (human) = DYRK1B (human) (UniProt Q9Y463)
PRKCB1 (human) = PRKCB1 (human) (UniProt P05771)
LCK (human) = LCK (human) (UniProt P06239)
MAPKAPK2 (human) = MAPKAPK2 (human) (UniProt P49137)
NTRK3 (human) = NTRK3 (human) (UniProt Q16288)
INSR (human) = INSR (human) (UniProt P06213)
IRAK4 (human) = IRAK4 (human) (UniProt Q9NWZ3)
MAPKAPK5 (human) = MAPKAPK5 (human) (UniProt Q8IW41)
NEK3 (human) = NEK3 (human) (UniProt P51956)
STK16 (human) = STK16 (human) (UniProt O75716)
AKT1 (human) = AKT1 (human) (UniProt P31749)
NUAK1 (human) = NUAK1 (human) (UniProt O60285)
FGFR1 (human) = FGFR1 (human) (UniProt P11362)
AURKA (human) = AURKA (human) (UniProt O14965)
CSNK1G2 (human) = CSNK1G2 (human) (UniProt P78368)
PRKCZ (human) = PRKCZ (human) (UniProt Q05513)
STK4 (human) = STK4 (human) (UniProt Q13043)
EPHB4 (human) = EPHB4 (human) (UniProt P54760)
AXL (human) = AXL (human) (UniProt P30530)
PIM2 (human) = PIM2 (human) (UniProt Q9P1W9)
FGR (human) = FGR (human) (UniProt P09769)
DAPK2 (human) = DAPK2 (human) (UniProt Q9UIK4)
AKT2 (human) = AKT2 (human) (UniProt P31751)
STK3 (human) = STK3 (human) (UniProt Q13188)
TXK (human) = TXK (human) (UniProt P42681)
CAMKK1 (human) = CAMKK1 (human) (UniProt Q8N5S9)
CSNK1G3 (human) = CSNK1G3 (human) (UniProt Q9Y6M4)
EPHA3 (human) = EPHA3 (human) (UniProt P29320)
CDK7 CCNH MNAT1 (human) = CDK7 CCNH MNAT1 (human) (UniProt P50613+P51948+P51946)
PTK6 (human) = PTK6 (human) (UniProt Q13882)
DMPK (human) = DMPK (human) (UniProt Q09013)
FES (human) = FES (human) (UniProt P07332)
DYRK2 (human) = DYRK2 (human) (UniProt Q92630)
NEK6 (human) = NEK6 (human) (UniProt Q9HC98)

TTK (human), sequence (P33981 whole entry, looked up): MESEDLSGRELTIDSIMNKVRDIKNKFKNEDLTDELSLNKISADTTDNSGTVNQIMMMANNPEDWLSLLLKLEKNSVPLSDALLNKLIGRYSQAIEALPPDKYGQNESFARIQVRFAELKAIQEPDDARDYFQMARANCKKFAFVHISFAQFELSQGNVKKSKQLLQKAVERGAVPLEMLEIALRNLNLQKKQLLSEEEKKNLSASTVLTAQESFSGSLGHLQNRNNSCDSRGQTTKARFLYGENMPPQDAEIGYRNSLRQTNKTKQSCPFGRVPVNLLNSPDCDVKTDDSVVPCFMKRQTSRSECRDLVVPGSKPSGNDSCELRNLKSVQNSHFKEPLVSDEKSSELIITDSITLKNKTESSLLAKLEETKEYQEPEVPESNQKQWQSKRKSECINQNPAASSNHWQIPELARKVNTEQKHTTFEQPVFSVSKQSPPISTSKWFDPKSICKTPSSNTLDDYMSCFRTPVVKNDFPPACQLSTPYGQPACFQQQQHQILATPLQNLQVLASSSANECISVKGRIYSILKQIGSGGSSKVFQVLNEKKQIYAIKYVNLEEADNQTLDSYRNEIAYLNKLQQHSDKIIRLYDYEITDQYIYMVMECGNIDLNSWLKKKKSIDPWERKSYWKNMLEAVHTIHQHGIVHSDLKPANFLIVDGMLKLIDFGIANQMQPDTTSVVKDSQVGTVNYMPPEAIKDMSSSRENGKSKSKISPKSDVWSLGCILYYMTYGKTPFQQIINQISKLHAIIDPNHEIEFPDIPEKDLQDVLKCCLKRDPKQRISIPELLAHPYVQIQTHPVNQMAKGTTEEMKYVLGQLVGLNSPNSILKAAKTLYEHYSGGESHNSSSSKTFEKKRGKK
MAP4K4 (human), sequence (O95819 whole entry, looked up): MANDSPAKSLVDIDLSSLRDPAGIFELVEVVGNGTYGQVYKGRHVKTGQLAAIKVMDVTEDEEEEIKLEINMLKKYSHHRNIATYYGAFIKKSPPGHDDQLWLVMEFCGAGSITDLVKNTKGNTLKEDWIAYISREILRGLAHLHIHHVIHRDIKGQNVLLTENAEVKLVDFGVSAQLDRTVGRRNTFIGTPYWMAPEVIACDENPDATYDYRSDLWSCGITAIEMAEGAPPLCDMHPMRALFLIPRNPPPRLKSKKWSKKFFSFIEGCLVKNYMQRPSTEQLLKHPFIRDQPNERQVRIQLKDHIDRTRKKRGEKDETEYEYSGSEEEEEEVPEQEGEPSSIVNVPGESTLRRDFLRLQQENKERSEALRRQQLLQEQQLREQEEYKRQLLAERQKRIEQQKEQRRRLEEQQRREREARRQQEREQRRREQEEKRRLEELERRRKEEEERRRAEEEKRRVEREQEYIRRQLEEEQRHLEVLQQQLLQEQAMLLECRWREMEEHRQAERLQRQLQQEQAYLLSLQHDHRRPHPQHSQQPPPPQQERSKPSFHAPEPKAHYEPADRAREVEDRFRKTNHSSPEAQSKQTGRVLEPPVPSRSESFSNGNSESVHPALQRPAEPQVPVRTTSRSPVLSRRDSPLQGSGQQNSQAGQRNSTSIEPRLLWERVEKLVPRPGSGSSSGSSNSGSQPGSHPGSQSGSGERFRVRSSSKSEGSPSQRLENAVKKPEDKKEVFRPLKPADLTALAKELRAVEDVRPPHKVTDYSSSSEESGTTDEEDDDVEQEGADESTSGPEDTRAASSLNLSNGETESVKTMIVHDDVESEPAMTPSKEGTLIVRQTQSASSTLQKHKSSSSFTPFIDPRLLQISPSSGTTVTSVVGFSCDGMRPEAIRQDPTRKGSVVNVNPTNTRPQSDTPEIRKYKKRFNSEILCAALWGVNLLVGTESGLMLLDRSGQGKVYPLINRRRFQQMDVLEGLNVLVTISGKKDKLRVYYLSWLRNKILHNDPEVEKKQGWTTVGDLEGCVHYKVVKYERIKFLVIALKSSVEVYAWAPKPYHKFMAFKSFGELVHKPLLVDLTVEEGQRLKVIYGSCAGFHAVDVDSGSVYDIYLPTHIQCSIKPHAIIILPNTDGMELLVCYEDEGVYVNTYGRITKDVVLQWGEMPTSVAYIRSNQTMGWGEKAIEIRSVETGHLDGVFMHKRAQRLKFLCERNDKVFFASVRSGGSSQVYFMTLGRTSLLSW
CAMKK1 (human), sequence (Q8N5S9 whole entry, looked up): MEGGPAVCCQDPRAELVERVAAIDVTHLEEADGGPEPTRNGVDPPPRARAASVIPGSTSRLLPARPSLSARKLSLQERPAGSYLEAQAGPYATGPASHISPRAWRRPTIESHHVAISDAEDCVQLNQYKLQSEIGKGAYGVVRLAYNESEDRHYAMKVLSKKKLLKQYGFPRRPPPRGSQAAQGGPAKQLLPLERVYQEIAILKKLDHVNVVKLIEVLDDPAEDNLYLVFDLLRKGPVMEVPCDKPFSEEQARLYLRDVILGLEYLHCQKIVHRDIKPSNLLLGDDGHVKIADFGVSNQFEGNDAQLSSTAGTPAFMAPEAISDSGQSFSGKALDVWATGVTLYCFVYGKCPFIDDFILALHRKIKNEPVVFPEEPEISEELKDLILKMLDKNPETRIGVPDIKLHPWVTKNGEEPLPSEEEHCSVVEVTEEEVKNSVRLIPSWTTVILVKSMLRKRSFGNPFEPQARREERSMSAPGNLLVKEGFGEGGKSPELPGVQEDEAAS
NTRK3 (human), sequence (Q16288 whole entry, looked up): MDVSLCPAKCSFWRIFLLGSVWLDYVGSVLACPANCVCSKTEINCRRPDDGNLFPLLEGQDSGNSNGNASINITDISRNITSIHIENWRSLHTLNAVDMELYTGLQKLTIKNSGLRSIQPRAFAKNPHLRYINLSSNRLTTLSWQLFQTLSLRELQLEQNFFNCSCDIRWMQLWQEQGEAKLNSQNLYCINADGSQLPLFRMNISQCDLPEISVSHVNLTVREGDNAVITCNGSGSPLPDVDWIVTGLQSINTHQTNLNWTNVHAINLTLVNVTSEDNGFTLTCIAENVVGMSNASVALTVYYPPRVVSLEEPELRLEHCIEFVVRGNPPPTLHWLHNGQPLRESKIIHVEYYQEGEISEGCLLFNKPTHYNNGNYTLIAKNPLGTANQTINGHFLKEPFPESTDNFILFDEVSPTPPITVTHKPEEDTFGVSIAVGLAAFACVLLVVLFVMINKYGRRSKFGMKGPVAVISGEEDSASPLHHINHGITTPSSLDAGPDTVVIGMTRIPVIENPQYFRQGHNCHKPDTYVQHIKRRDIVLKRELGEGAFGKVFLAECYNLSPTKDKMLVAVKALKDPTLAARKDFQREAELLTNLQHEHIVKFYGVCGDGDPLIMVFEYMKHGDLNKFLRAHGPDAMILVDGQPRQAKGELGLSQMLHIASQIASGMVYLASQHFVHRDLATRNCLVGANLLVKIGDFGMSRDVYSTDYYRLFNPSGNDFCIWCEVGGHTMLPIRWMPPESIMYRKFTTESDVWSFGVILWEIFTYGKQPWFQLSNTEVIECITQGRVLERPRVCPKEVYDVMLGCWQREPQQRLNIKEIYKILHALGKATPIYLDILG
EPHB4 (human), sequence (P54760 whole entry, looked up): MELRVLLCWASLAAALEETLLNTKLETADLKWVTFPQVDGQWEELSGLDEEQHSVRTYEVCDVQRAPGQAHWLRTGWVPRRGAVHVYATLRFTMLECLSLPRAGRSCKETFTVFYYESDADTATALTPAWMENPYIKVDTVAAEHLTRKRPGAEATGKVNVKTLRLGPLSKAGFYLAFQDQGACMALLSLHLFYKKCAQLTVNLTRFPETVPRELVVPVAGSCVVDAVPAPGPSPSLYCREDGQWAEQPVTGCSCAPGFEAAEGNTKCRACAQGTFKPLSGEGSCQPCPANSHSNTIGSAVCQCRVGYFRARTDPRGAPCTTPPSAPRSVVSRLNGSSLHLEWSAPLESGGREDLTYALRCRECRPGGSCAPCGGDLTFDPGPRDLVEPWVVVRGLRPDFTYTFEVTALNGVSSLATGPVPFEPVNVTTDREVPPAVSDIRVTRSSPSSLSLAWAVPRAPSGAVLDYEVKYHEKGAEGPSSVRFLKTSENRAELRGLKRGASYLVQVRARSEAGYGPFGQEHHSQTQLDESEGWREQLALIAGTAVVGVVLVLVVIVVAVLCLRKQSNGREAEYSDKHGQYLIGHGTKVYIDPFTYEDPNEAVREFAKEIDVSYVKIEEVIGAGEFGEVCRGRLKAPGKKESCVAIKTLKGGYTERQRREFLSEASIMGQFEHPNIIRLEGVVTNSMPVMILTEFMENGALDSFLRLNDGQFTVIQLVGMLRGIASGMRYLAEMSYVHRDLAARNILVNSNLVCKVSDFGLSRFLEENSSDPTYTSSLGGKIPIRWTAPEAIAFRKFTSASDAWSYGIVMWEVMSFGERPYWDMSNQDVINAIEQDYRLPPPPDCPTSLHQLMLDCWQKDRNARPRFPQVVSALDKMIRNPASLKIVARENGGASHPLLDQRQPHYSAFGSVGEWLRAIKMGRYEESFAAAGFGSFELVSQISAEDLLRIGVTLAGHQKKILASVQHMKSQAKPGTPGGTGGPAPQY
MAP3K3 (human), sequence (Q99759 whole entry, looked up): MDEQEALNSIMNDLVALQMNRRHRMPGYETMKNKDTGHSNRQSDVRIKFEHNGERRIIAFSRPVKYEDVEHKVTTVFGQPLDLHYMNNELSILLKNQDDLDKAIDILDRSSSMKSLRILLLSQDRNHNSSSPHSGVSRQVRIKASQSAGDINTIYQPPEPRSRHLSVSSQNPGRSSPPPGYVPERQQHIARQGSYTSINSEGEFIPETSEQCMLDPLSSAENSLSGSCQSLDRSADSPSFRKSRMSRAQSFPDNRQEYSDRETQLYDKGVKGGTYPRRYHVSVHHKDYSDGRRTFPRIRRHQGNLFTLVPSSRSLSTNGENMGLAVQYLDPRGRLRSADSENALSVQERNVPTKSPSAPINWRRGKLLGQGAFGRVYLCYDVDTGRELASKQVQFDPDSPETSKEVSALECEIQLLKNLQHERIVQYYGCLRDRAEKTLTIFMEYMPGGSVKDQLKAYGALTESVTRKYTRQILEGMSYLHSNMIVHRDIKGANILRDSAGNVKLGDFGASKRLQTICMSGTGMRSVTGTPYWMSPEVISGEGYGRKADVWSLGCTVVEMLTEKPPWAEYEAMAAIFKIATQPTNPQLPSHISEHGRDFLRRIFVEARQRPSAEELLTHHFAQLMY

## CN(C)S(=O)(=O)c1ccc2c(c1)/C(=C/c1cc3c([nH]1)CCCC3)C(=O)N2
MARK2 (human)
  residual activity: 61.7%
TTK (human)
  residual activity: 89.7%
CAMK1G (human)
  residual activity: 97.1%
MAP3K3 (human)
  residual activity: 48.7%
MAP4K4 (human)
  residual activity: 46.1%
TAOK1 (human)
  residual activity: 85.8%
AURKB (human)
  residual activity: 11%
MAPK12 (human)
  residual activity: 103%
DYRK1B (human)
  residual activity: 93.6%
PRKCB1 (human)
  residual activity: 106%
LCK (human)
  residual activity: 34.7%
MAPKAPK2 (human)
  residual activity: 101%
NTRK3 (human)
  residual activity: 2.88%
INSR (human)
  residual activity: 91.6%
IRAK4 (human)
  residual activity: 57.7%
MAPKAPK5 (human)
  residual activity: 99.8%
NEK3 (human)
  residual activity: 98.2%
STK16 (human)
  residual activity: 104%
AKT1 (human)
  residual activity: 107%
NUAK1 (human)
  residual activity: 10.9%
FGFR1 (human)
  residual activity: 71.4%
AURKA (human)
  residual activity: 16.1%
CSNK1G2 (human)
  residual activity: 93.8%
PRKCZ (human)
  residual activity: 98.9%
STK4 (human)
  residual activity: 13.1%
EPHB4 (human)
  residual activity: 85.8%
AXL (human)
  residual activity: 39.7%
PIM2 (human)
  residual activity: 108%
FGR (human)
  residual activity: 18.2%
DAPK2 (human)
  residual activity: 93.5%
AKT2 (human)
  residual activity: 105%
STK3 (human)
  residual activity: 24.3%
TXK (human)
  residual activity: 96%
CAMKK1 (human)
  residual activity: 65.4%
CSNK1G3 (human)
  residual activity: 101%
EPHA3 (human)
  residual activity: 98.6%
CDK7 CCNH MNAT1 (human)
  residual activity: 76.4%
PTK6 (human)
  residual activity: 56.3%
DMPK (human)
  residual activity: 102%
FES (human)
  residual activity: 76.9%
DYRK2 (human)
  residual activity: 103%
NEK6 (human)
  residual activity: 90.7%

## COc1ccc(S(=O)(=O)N(CCO)c2ccccc2CN(C)C/C=C/c2ccc(Cl)cc2)cc1
MARK2 (human)
  residual activity: 95.5%
TTK (human)
  residual activity: 83.3%
CAMK1G (human)
  residual activity: 101%
MAP3K3 (human)
  residual activity: 99.8%
MAP4K4 (human)
  residual activity: 97.6%
TAOK1 (human)
  residual activity: 103%
AURKB (human)
  residual activity: 106%
MAPK12 (human)
  residual activity: 98.9%
DYRK1B (human)
  residual activity: 104%
PRKCB1 (human)
  residual activity: 97.7%
LCK (human)
  residual activity: 95.5%
MAPKAPK2 (human)
  residual activity: 102%
NTRK3 (human)
  residual activity: 95.3%
INSR (human)
  residual activity: 103%
IRAK4 (human)
  residual activity: 97.2%
MAPKAPK5 (human)
  residual activity: 100%
NEK3 (human)
  residual activity: 96.2%
STK16 (human)
  residual activity: 102%
AKT1 (human)
  residual activity: 106%
NUAK1 (human)
  residual activity: 96.5%
FGFR1 (human)
  residual activity: 99.5%
AURKA (human)
  residual activity: 97.5%
CSNK1G2 (human)
  residual activity: 103%
PRKCZ (human)
  residual activity: 100%
STK4 (human)
  residual activity: 94.2%
EPHB4 (human)
  residual activity: 104%
AXL (human)
  residual activity: 104%
PIM2 (human)
  residual activity: 99.7%
FGR (human)
  residual activity: 99.8%
DAPK2 (human)
  residual activity: 107%
AKT2 (human)
  residual activity: 106%
STK3 (human)
  residual activity: 101%
TXK (human)
  residual activity: 95.6%
CAMKK1 (human)
  residual activity: 106%
CSNK1G3 (human)
  residual activity: 98.3%
EPHA3 (human)
  residual activity: 102%
CDK7 CCNH MNAT1 (human)
  residual activity: 97.6%
PTK6 (human)
  residual activity: 89.3%
DMPK (human)
  residual activity: 105%
FES (human)
  residual activity: 96.3%
DYRK2 (human)
  residual activity: 87.5%
NEK6 (human)
  residual activity: 103%

## Cc1cccc(-c2nc(C(C)(C)C)[nH]c2-c2ccc3c(c2)OCO3)n1
MARK2 (human)
  residual activity: 90%
TTK (human)
  residual activity: 89%
CAMK1G (human)
  residual activity: 98.7%
MAP3K3 (human)
  residual activity: 120%
MAP4K4 (human)
  residual activity: 86.9%
TAOK1 (human)
  residual activity: 97.6%
AURKB (human)
  residual activity: 96.5%
MAPK12 (human)
  residual activity: 95.7%
DYRK1B (human)
  residual activity: 99.6%
PRKCB1 (human)
  residual activity: 82.5%
LCK (human)
  residual activity: 97.9%
MAPKAPK2 (human)
  residual activity: 103%
NTRK3 (human)
  residual activity: 92.4%
INSR (human)
  residual activity: 87.6%
IRAK4 (human)
  residual activity: 86.8%
MAPKAPK5 (human)
  residual activity: 96.1%
NEK3 (human)
  residual activity: 85.6%
STK16 (human)
  residual activity: 90.1%
AKT1 (human)
  residual activity: 94.6%
NUAK1 (human)
  residual activity: 97.3%
FGFR1 (human)
  residual activity: 90.8%
AURKA (human)
  residual activity: 93.4%
CSNK1G2 (human)
  residual activity: 104%
PRKCZ (human)
  residual activity: 87.9%
STK4 (human)
  residual activity: 98.7%
EPHB4 (human)
  residual activity: 91.4%
AXL (human)
  residual activity: 101%
PIM2 (human)
  residual activity: 99.7%
FGR (human)
  residual activity: 99.9%
DAPK2 (human)
  residual activity: 102%
AKT2 (human)
  residual activity: 80.1%
STK3 (human)
  residual activity: 97.7%
TXK (human)
  residual activity: 100%
CAMKK1 (human)
  residual activity: 103%
CSNK1G3 (human)
  residual activity: 102%
EPHA3 (human)
  residual activity: 101%
CDK7 CCNH MNAT1 (human)
  residual activity: 106%
PTK6 (human)
  residual activity: 87.7%
DMPK (human)
  residual activity: 102%
FES (human)
  residual activity: 108%
DYRK2 (human)
  residual activity: 108%
NEK6 (human)
  residual activity: 109%

## COc1cc2ncnc(Nc3ccc(OCc4ccccc4)cc3)c2cc1OC
MARK2 (human)
  residual activity: 108%
TTK (human)
  residual activity: 96.8%
CAMK1G (human)
  residual activity: 97.1%
MAP3K3 (human)
  residual activity: 88.7%
MAP4K4 (human)
  residual activity: 103%
TAOK1 (human)
  residual activity: 94.4%
AURKB (human)
  residual activity: 50.3%
MAPK12 (human)
  residual activity: 102%
DYRK1B (human)
  residual activity: 104%
PRKCB1 (human)
  residual activity: 97.4%
LCK (human)
  residual activity: 42.2%
MAPKAPK2 (human)
  residual activity: 106%
NTRK3 (human)
  residual activity: 93.8%
INSR (human)
  residual activity: 100%
IRAK4 (human)
  residual activity: 119%
MAPKAPK5 (human)
  residual activity: 100%
NEK3 (human)
  residual activity: 99.1%
STK16 (human)
  residual activity: 106%
AKT1 (human)
  residual activity: 103%
NUAK1 (human)
  residual activity: 94.8%
FGFR1 (human)
  residual activity: 91.3%
AURKA (human)
  residual activity: 91.3%
CSNK1G2 (human)
  residual activity: 98.4%
PRKCZ (human)
  residual activity: 113%
STK4 (human)
  residual activity: 101%
EPHB4 (human)
  residual activity: 94.6%
AXL (human)
  residual activity: 94.8%
PIM2 (human)
  residual activity: 97.6%
FGR (human)
  residual activity: 72.2%
DAPK2 (human)
  residual activity: 99.9%
AKT2 (human)
  residual activity: 101%
STK3 (human)
  residual activity: 97.6%
TXK (human)
  residual activity: 99.4%
CAMKK1 (human)
  residual activity: 126%
CSNK1G3 (human)
  residual activity: 92.9%
EPHA3 (human)
  residual activity: 98.1%
CDK7 CCNH MNAT1 (human)
  residual activity: 98.8%
PTK6 (human)
  residual activity: 37.9%
DMPK (human)
  residual activity: 104%
FES (human)
  residual activity: 97%
DYRK2 (human)
  residual activity: 111%
NEK6 (human)
  residual activity: 97.6%
